Test results taken from patent US20220389008A1, “4-QUINOLINONE ANTIBACTERIAL COMPOUNDS” (Janssen Sciences Ireland Unlimited Company, priority 2019, published 2022).
Like-named read-outs stand apart in the source and are kept apart here.

Columns and labels:
[1] = tested on: Mycobacterium tuberculosis strain H37Rv ΔctaE-ΔqcrCAB; test: microbe, parasite or virus in culture; format: cell-based; details: 240 h
[2] = tested on: Mitochondrial toxicity (Glu/Gal); test: Mitochondrial toxicity (Glu/Gal) assay; format: cell-based; parameters: key to Score: “negative” means that in the test, it was found to have low mitotoxicity (and hence no mitotoxicity alerts); “positive” means that there were some mitotoxicity alerts; “inconclusive” means that no accurate conclusion could be drawn; details: for Score: mitotoxicity score; for Δ IC50,glu/IC50,gal: ratio glu/gal
Excerpt: The compounds of the invention/examples may have advantages associated with in vitro potency, kill kinetics (i.e. bactericidal effect) in vitro, PK properties, food effect, safety/toxicity (including liver toxicity, coagulation, 5-LO oxygenase), metabolic stability, Ames II negativity, MNT negativity, aqueous based solubility (and ability to formulate) and/or cardiovascular effect e.g. on animals (e.g. anesthetized guinea pig). The data below that was generated/calculated may be obtained using standard methods/assays, for instance that are available in the literature or which may be performed by a supplier (e.g. Microsomal Stability Assay—Cyprotex, Mitochondrial toxicity (Glu/Gal) assay—Cyprotex, as well as literature CYP cocktail inhibition assays).

[3] = tested on: Mycobacterium tuberculosis (strain H37Ra), cyt bd; details: Mtb H37Ra; for (i) % OCR after cyt bd inhibitor: test compound 10 μM added after Compound X 0.9 μM; for (ii) % OCR after cccp: test compound 10 μM after Compound X 0.9 μM, then CCCP 1 μM
[4] = galactose medium, read-out: IC50, gal
[5] = glucose medium, read-out: IC50, glu

Structure (SMILES) | IC50 [1] [µM] | IC50 [2, 4] [µM] | IC50 [2, 5] [µM] | Score [2] | Δ IC50,glu/IC50,gal [2] | (i) % OCR after cyt bd inhibitor [3] | (ii) % OCR after cccp [3]
Cc1c(-c2nc3ccc(-c4ccc(OC(F)(F)F)c(F)c4)cn3n2)[nH]c2ccccc2c1=O [Compound 1] | 1.63 | 19.8 | 100 | positive | [x]5.06 | 26.9% | 35.1%
Cc1c(-c2nc3ccc(-c4ccc(OC(F)(F)F)cc4)cn3n2)[nH]c2ccc(F)cc2c1=O [Compound 3] |  |  |  |  |  | 28.75% | 38.75%
Cc1c(-c2nc3ccc(CN4CCC(C(F)(F)F)CC4)cn3n2)[nH]c2ccccc2c1=O [Compound 8] | 3.7 | 180 | 163 | negative | [x]0.91 | 82.67% | 59.43%
Cc1c(-c2nc3ccc(N4CCCC(C(F)(F)F)C4)cn3n2)[nH]c2ccccc2c1=O (centres unmarked) [Compound 9] | 1.31 |  |  |  |  | 58.71% | 62.22%
Cc1c(-c2nc3ccc(-c4ccc(F)c(F)c4)cn3n2)[nH]c2ccccc2c1=O [Compound 10] |  |  |  |  |  | 43.4% | 63.9%
Cc1c(-c2nc3ccc(-c4ccc(C(F)(F)F)s4)cn3n2)[nH]c2ccccc2c1=O [Compound 11] | 2.6 |  |  |  |  | 62.79% | 69.17%
Cc1c(-c2nc3ccc(N4CCC(OC(F)(F)F)CC4)cn3n2)[nH]c2ccccc2c1=O [Compound 13] | 4.12 | 141 | 200 | negative | [x]1.42 | 61.74% | 83.9%
Cc1c(-c2nc3ccc(-c4cc(C(F)(F)F)nn4C)cn3n2)[nH]c2ccccc2c1=O [Compound 15] | 57 | 200 | 44.3 | negative | [x]0.22 | 91.58% | 94.75%
Cc1c(-c2nc3ccc(N4CCN(CC(F)(F)F)CC4)cn3n2)[nH]c2ccccc2c1=O [Compound 16] | 1.17 | 200 | 200 | negative | [x]0 | 80.34% | 95.29%
Cc1noc(-c2ccc3nc(-c4[nH]c5ccccc5c(=O)c4C)nn3c2)n1 [Compound 17] | > 5 |  |  |  |  | 98.64% | 97.68%
Cc1c(-c2nc3ccc(CC(F)(F)F)cn3n2)[nH]c2ccccc2c1=O [Compound 20] | 2.17 | 125 | 176 | negative | [x]1.41 | 78.5% | 102.86%
Cc1c(-c2nc3cc(C(F)(F)F)c(-c4ccccc4)cn3n2)[nH]c2ccccc2c1=O [Compound 21] | 11.4 | 50 | 50 | negative | [x]0 | 81.6% | 103.4%
Cc1c(-c2cn3cc(-c4cccc(OC(F)(F)F)c4)ccc3n2)[nH]c2ccccc2c1=O [Compound 23] | > 100 | 200 | 200 | negative |  | 97.51% | 110.11%
Cc1c(-c2nc3ccc(-c4nc(C(F)(F)F)no4)cn3n2)[nH]c2ccccc2c1=O [Compound 24] | 2.95 | 20 | 20 | negative | [x]0 | 99.13% | 113.29%
CNC(=O)c1c(-c2nc3ccc(-c4nc(C(F)(F)F)cs4)cn3n2)[nH]c2ccccc2c1=O [Compound 27] | > 50 | 100 | 100 | negative | [x]0 | 111.36% | 117.59%
Cc1c(-c2nc3cc(-c4cccc(OC(F)(F)F)c4)ccn3n2)[nH]c2ccccc2c1=O [Compound 28] | 10 | 58.7 | 100 | negative | [x]1.7 | 123.3% | 117.7%
Cc1c(-c2cn3cc(-c4ccc(OC(F)(F)F)cc4)ccc3n2)[nH]c2ccccc2c1=O [Compound 35] | 2.39 |  |  |  |  | 102.9% | 129.2%
Cc1c(-c2nc3ccc(-c4ccc(F)cc4)cn3n2)[nH]c2ccccc2c1=O [Compound 36] |  |  |  |  |  | 88.6% | 130.6%
Cc1c(-c2nc3ccc(-c4ncc(C(F)(F)F)s4)cn3n2)[nH]c2ccccc2c1=O [Compound 37] |  |  |  |  |  | 93.8% | 132.68%
Cc1c(-c2nc3ccc(-c4nc(C(F)(F)F)ns4)cn3n2)[nH]c2ccccc2c1=O [Compound 38] | 4.88 |  |  |  |  | 95.63% | 132.88%

Structure (SMILES) | IC50 [1] [µM] | IC50 [2, 4] [µM] | IC50 [2, 5] [µM] | Score [2] | Δ IC50,glu/IC50,gal [2] | (i) % OCR after cyt bd inhibitor [3] | (ii) % OCR after cccp [3]
Cc1c(-c2nc3ccc(N4CCC(C(F)(F)F)CC4)cn3n2)[nH]c2ccccc2c1=O [Compound 47] |  |  |  |  |  | 99.34% | 141.23%
Cc1c(-c2nc3ccc(-c4nc(C(F)(F)F)nn4C)cn3n2)[nH]c2ccccc2c1=O [Compound 49] | > 50 |  |  |  |  | 101.3% | 143.58%
CNC(=O)c1c(-c2nc3ccc(-c4ccc(OC(F)(F)F)cc4)cn3n2)[nH]c2ccccc2c1=O [Compound 50] |  | 86.5 | 100 | negative | [x]1.16 | 114.33% | 144.07%
Cc1c(-c2nc3ccc(N4CCOCC4)cn3n2)[nH]c2ccccc2c1=O [Compound 54] | 5.94 |  |  |  |  |  | 
Cc1c(-c2nc3ccc(-c4nnc(C(F)(F)F)s4)cn3n2)[nH]c2ccccc2c1=O [Compound 59] |  |  |  |  |  | 107.31% | 154.34%
Cc1c(-c2nc3ccc(-c4ccc(F)nc4)cn3n2)[nH]c2ccccc2c1=O [Compound 61] |  |  |  |  |  | 108% | 155.2%
Cc1c(-c2nc3ccc(-c4ccc(OC(F)(F)F)cc4)cn3n2)[nH]c2c(F)cc(F)cc2c1=O [Compound 64] |  |  |  |  |  | 109.65% | 158.95%
COc1cc2[nH]c(-c3nc4ccc(-c5ccc(OC(F)(F)F)cc5)cn4n3)c(C)c(=O)c2cc1Cl [Compound 69] |  |  |  |  |  | 150.98% | 165.1%
Cc1csc(-c2ccc3nc(-c4[nH]c5ccccc5c(=O)c4C)nn3c2)n1 [Compound 71] | > 10 |  |  |  |  | 95.71% | 167.55%
Cc1c(-c2nc3ccc(-c4cn(C)nn4)cn3n2)[nH]c2ccccc2c1=O [Compound 76] | > 5 |  |  |  |  | 111.72% | 175.05%
COc1cc2c(=O)c(C)c(-c3nc4ccc(-c5ccc(OC(F)(F)F)cc5)cn4n3)[nH]c2cc1Cl [Compound 78] |  |  |  |  |  | 135.74% | 178.3%
Cc1c(-c2nc3ccc(-c4cc(F)cc(F)c4)cn3n2)[nH]c2ccccc2c1=O [Compound 88] | 5.35 |  |  |  |  |  | 76%
COc1cccc(-c2ccc3nc(-c4[nH]c5ccccc5c(=O)c4C)nn3c2)c1 [Compound 89] | 0.574 |  |  |  |  | 55,82% | 62,29%
Cc1ccc(-c2ccc3nc(-c4[nH]c5ccccc5c(=O)c4C)nn3c2)o1 [Compound 91] | 1.74 |  |  |  |  | 49,11% | 56,23%
COc1ccc(-c2ccc3nc(-c4[nH]c5ccccc5c(=O)c4C)nn3c2)cc1F [Compound 98] | 1.98 |  |  |  |  | 54,17% | 73,86%
Cc1c(-c2nc3ccc(-c4cccc(C(F)F)c4)cn3n2)[nH]c2ccccc2c1=O [Compound 107] | 3.32 |  |  |  |  | 58,92% | 76,98%
Cc1c(-c2nc3ccc(-c4cccc(CC(F)F)c4)cn3n2)[nH]c2ccccc2c1=O [Compound 112] | 1.85 |  |  |  |  | 31,36% | 38,59%
Cc1c(-c2nc3ccc(-c4ccnn4C)cn3n2)[nH]c2ccccc2c1=O [Compound 116] | 4.59 |  |  |  |  | 72,01% | 85,87%
C/C=C(\C=C/C1=NC(c2[nH]c3ccccc3c(=O)c2C)=NC(CC)C1)c1ccc(OC)c(OC)c1 (centres unmarked) [Compound 120] | 0.697 |  |  |  |  | 59,83% | 89,24%
Cc1c(-c2nc3ccc(-c4ccc(C(F)(F)F)c(F)c4)cn3n2)[nH]c2ccccc2c1=O [Compound 123] | 4.14 |  |  |  |  | 50,75% | 
